Measured values published in patent US9926330B2, “Inhibitors of IRAK4 activity” (MERCK SHARP & DOHME CORP., priority 2014, dated 2018).

target: GST tagged IRAK4 (Homo sapiens (Human), UniProt Q9NWZ3); assay: IRAK4 Kinase Assay (IMAP fluorescence polarization); type: biochemical; settings: 0.5 nM GST tagged IRAK4, 100 nM fluorescent peptide substrate RP7030, 100 μM ATP, 30 minutes at 25° C., IMAP FP readout
Procedure: The kinase activity of IRAK4 is determined by its ability to catalyze the phosphorylation of a fluorescent polypeptide substrate. The extent of phosphorylation is measured using the IMAP technology (Molecular Devices) where the phosphorylated fluorescent substrate binds to the large M(III)-based nanoparticles which reduces the rotational speed of the substrate and thus increases its fluorescent polarization (FP).
20 μL reaction mixture contains 10 mM TriHCl, pH 7.2, 0.5 nM GST tagged IRAK4 (SignalChem), 100 nM fluorescent peptide substrate (RP7030, Molecular Devices), 100 μM ATP, 1 mM DDT, 1 mM MgCl2, and 0.01% Tween 20. The reaction is initiated by the addition of ATP. After incubation for 30 minutes at 25° C., 60 μL of Progressive IMAP Reagent (Molecular Devices) is added to stop the reaction. Change in RP7030's FP is determined by a FP reader (Analyst HT, LJL BioSystems).

Chain of GST tagged IRAK4 (Q9NWZ3 whole entry): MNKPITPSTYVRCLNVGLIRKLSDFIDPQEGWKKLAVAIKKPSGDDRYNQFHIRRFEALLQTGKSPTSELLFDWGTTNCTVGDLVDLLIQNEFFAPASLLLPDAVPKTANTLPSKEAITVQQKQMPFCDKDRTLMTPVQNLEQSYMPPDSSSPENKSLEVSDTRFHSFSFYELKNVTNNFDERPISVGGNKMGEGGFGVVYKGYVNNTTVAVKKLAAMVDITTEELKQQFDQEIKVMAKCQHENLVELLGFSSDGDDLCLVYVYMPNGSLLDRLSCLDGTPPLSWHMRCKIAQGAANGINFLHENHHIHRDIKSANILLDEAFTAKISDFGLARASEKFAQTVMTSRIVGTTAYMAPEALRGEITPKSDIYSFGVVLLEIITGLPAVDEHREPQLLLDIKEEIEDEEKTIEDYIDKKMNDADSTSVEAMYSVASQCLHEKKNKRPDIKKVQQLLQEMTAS

Q: How did the IC50 turn out when `Cc1ccc2ncnc(N[C@H]3CC[C@H](NC(C)C)CC3)c2c1` [Example 2-24, trans-N-(1-methylethyl)-N′-(6-methylquinazolin-4-yl)cyclohexane-1,4-diamine] was run?
A: Its IC50 is 44 nM.

Q: With `Cc1ccc2ncnc(N[C@H]3CC[C@H](NCC(C)(C)C)CC3)c2c1` [Example 2-29, trans-N-(2,2-dimethylpropyl)-N′-(6-methylquinazolin-4-yl)cyclohexane-1,4-diamine] as the compound, how does the IC50 read?
A: Its IC50 is 69 nM.

Q: Which IC50 does the source give for `Cc1ccc2ncnc(N[C@H]3CC[C@H](N[C@@H](C)C(F)F)CC3)c2c1` [Example 2-30, trans-N-[(1S)-2,2-difluoro-1-methylethyl]-N′-(6-methylquinazolin-4-yl)cyclohexane-1,4-diamine] here?
A: Its IC50 is 126 nM.

Q: With `OCCCCc1ccc2ncnc(N[C@H]3CC[C@H](N4CCOCC4)CC3)c2c1` [Example 5-3, 4-{4-[(trans-4-morpholin-4-ylcyclohexyl)amino]quinazolin-6-yl}butan-1-ol] as the compound, how does the IC50 read?
A: The IC50 was 68 nM.

Q: How did the IC50 turn out when `Cc1ccc2ncnc(N[C@H]3CC[C@H](N4CC(F)C4)CC3)c2c1` [Example 2-3, N-[trans-4-(3-fluoroazetidin-1-yl)cyclohexyl]-6-methylquinazolin-4-amine] was run?
A: The IC50 was 94 nM.

Q: How did the IC50 turn out when `C=Cc1ccc2ncnc(NC3CCC(N(C)C)CC3)c2c1` (stereo not drawn) [Example 3-2, N′-(6-ethenylquinazolin-4-yl)-N,N-dimethylcyclohexane-1,4-diamine] was run?
A: Its IC50 is 7 nM.

Q: `Cc1ccc2ncnc(N[C@H]3CC[C@@H](N4CC(F)C4)CC3)c2c1` [Example 2-2, N-[cis-4-(3-fluoroazetidin-1-yl)cyclohexyl]-6-methylquinazolin-4-amine] was tested. Which IC50 did it give?
A: The IC50 was 1360 nM.

Q: `Cc1ccc2ncnc(N[C@H]3CC[C@H](N4CCC5(COC5)C4)CC3)c2c1` [Example 2-9, 6-methyl-N-[trans-4-(2-oxa-6-azaspiro[3.4]oct-6-yl)cyclohexyl]quinazolin-4-amine] was tested. Which IC50 did it give?
A: The IC50 was 95 nM.

Q: For `Cc1ccc2ncnc(N[C@H]3CC[C@H](N4CC5(COC5)C4)CC3)c2c1` [Example 6-2, N-((trans)-4-(2-oxa-6-azaspiro[3.3]heptan-6-yl)cyclohexyl)-6-methylquinazolin-4-amine], which IC50 is on record?
A: Its IC50 is 101 nM.

Q: With `Cc1cc2c(N[C@H]3CC[C@H](N4CCOCC4)CC3)ncnc2cc1F` [Example 1-5, 7-fluoro-6-methyl-N-(trans-4-morpholin-4-ylcyclohexyl)quinazolin-4-amine] as the compound, how does the IC50 read?
A: The IC50 was 32 nM.

Q: How did the IC50 turn out when `OCCCc1ccc2ncnc(N[C@H]3CC[C@H](N4CCOCC4)CC3)c2c1` [Example 5-2, 3-{4-[(trans-4-morpholin-4-ylcyclohexyl)amino]quinazolin-6-yl}propan-1-ol] was run?
A: Its IC50 is 10 nM.

Q: For `FC(F)(F)c1ccc2ncnc(N[C@H]3CC[C@H](N4CCOCC4)CC3)c2c1` [Example 1-4, N-(trans-4-morpholin-4-ylcyclohexyl)-6-(trifluoromethyl)quinazolin-4-amine], which IC50 is on record?
A: The IC50 was 15 nM.

Q: With `Cc1ccc2ncnc(N[C@H]3CC[C@H](N[C@@H](C)CC(F)(F)F)CC3)c2c1` [Example 2-22, trans-N-(6-methylquinazolin-4-yl)-N′-[(1S)-3,3,3-trifluoro-1-methylpropyl]cyclohexane-1,4-diamine] as the compound, how does the IC50 read?
A: Its IC50 is 67 nM.

Q: With `CCCc1ccc2ncnc(N[C@H]3CC[C@H](N4CCOCC4)CC3)c2c1` [Example 4-4, N-(trans-4-morpholin-4-ylcyclohexyl)-6-propylquinazolin-4-amine] as the compound, how does the IC50 read?
A: Its IC50 is 11 nM.

Q: How did the IC50 turn out when `Cc1ccc2ncnc(N[C@H]3CC[C@@H](N4CCNC(=O)C4)CC3)c2c1` [Example 2-4, 4-{cis-4-[(6-methylquinazolin-4-yl)amino]cyclohexyl}piperazin-2-one] was run?
A: The IC50 was 2200 nM.
